Laboratory results as given in ChEMBL document CHEMBL5370598, “[3H]UR-JG102-A Radiolabeled Cyclic Peptide with High Affinity and Excellent Selectivity for the Neuropeptide Y Y4 Receptor” (J Med Chem, 2023).

How the values were obtained:
[1] = molecular target: T1, Neuropeptide Y receptor type 4 (Homo sapiens, UniProt P50391); test: Binding affinity to human Y4R expressed in CHO cells co-expressing Gqi5-mtAEQ under DPBS condition; type: cell-based
[2] = molecular target: T1, Neuropeptide Y receptor type 4; test: Binding affinity to human Y4R expressed in CHO cells co-expressing Gqi5-mtAEQ at 4 degreeC; type: cell-based
[3] = molecular target: T1, Neuropeptide Y receptor type 4; test: Binding affinity to human Y4R expressed in CHO cells co-expressing Gqi5-mtAEQ assessed as dissociation constant preincubated for 2 hrs under DPBS condition; type: cell-based
[4] = molecular target: T1, Neuropeptide Y receptor type 4; test: Binding affinity to human Y4R expressed in CHO cells co-expressing Gqi5-mtAEQ under sodium free buffer condition; type: cell-based
[5] = molecular target: T1, Neuropeptide Y receptor type 4; test: Binding affinity to human Y4R under 137 mM sodium condition
[6] = molecular target: T1, Neuropeptide Y receptor type 4; test: Binding affinity to human Y4R expressed in CHO cells co-expressing Gqi5-mtAEQ assessed as dissociation constant under sodium free buffer condition; type: cell-based
[7] = molecular target: T1, Neuropeptide Y receptor type 4; test: Binding affinity to human Y4R expressed in CHO cells co-expressing Gqi5-mtAEQ assessed as dissociation constant preincubated for 20 mins under DPBS condition; type: cell-based
[8] = molecular target: T1, Neuropeptide Y receptor type 4; test: Binding affinity to human Y4R under hypotonic sodium free condition
[9] = molecular target: T1, Neuropeptide Y receptor type 4; test: Binding affinity to human Y4R under sodium free condition
[10] = molecular target: T1, Neuropeptide Y receptor type 4; test: (§1) Displacement of [3H]-(9S,12S,15S,19R,E)-4-amino-N-((S)-1-(((S)-1-(((S)-1-amino-3-(4-hydroxyphenyl)-1-oxopropan-2-yl)amino)-5-guanidino-1-oxopentan-2-yl)amino)-4-methyl-1-oxopentan-2-yl)-15-(3-guanidinopropyl)-12-(4-hydroxybenzyl)-2,11,14,17,20-pentaoxo-19-(4-(propanamido-2,3-t2)butanamido)-1,3,5,10,13,16,21-heptaazacyclopentacos-3-ene-9-carboxamide from human Y4R expressed in CHO cells coexpressing Gqi5-mtAEQ under hypotonic sodium free buffer condition; type: cell-based; conditions: read-out: Ki
[11] = molecular target: T1, Neuropeptide Y receptor type 4; test: as §1, with “isotonic” for “hypotonic”, “containing” for “free”; type: cell-based
[12] = molecular target: T1, Neuropeptide Y receptor type 4; test: Binding affinity to human Y4R under 140 mM sodium condition

T1 sequence (P50391 whole entry): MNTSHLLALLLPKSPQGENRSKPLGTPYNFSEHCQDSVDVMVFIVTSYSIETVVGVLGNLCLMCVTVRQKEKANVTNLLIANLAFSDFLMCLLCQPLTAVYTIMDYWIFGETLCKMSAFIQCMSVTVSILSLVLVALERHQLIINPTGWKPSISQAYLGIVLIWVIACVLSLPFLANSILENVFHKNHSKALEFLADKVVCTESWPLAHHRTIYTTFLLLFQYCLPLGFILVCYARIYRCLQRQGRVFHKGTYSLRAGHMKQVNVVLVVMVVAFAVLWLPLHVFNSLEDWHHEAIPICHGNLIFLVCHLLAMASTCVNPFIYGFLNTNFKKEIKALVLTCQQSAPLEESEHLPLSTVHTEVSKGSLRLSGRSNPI

In the case of `[3H]CC([3H])C(=O)NCCCC(=O)N[C@@H]1CC(=O)N[C@@H](CCCNC(=N)N)C(=O)N[C@@H](Cc2ccc(O)cc2)C(=O)N[C@H](C(=O)N[C@@H](CC(C)C)C(=O)N[C@@H](CCCNC(=N)N)C(=O)N[C@@H](Cc2ccc(O)cc2)C(N)=O)CCCN/C(N)=N/C(=O)NCCCCNC1=O` (stereo partly drawn), the Kd [1] is reported as 0.11 nM, the Kd [2] is reported as 0.86 nM and the Kd [3] is reported as 0.09 nM. For the same compound, the Kd [4] was 0.012 nM, the Kd [5] was 0.11 nM and the Kd [6] was 0.002 nM. For the same compound, the Kd [7] was 0.014 nM.
Work on `[3H]CC([3H])C(=O)N[C@H](CCCC[C@@H](N)C(=O)N[C@@H](Cc1ccc(O)cc1)C(=O)N[C@@H](CCCNC(=N)N)C(=O)N[C@@H](CC(C)C)C(=O)N[C@@H](CCCNC(=N)N)C(=O)N[C@@H](Cc1ccc(O)cc1)C(N)=O)C(=O)N[C@@H](Cc1ccc(O)cc1)C(=O)N[C@@H](CCCNC(=N)N)C(=O)N[C@@H](CC(C)C)C(=O)N[C@@H](CCCNC(=N)N)C(=O)N[C@@H](Cc1ccc(O)cc1)C(N)=O` (stereo partly drawn) yielded a Ki [8] of 0.87 nM, a Kd [9] of 0.67 nM and a Ki [10] of 0.39 nM. It also gave a Ki ([11]; read-out: Ki) of 11 nM, a Ki ([11]; read-out: pKi (converted)) of 10.2 nM and a Kd [12] of 9.8 nM.
